Measured values: ChEMBL document CHEMBL5620401, “Design, synthesis, and biological evaluation of novel spirocyclic compounds as potential anti-glioblastoma agents” (Eur J Med Chem, 2023)
One block for each compound: values may come before it. Activity calls are given as the source filed them. The rule behind the calls is not given here.

Assays:
U-87 MG [1] = assay: Antiproliferative activity against human U87 cells assessed as cell viability measured after 72 hrs by MTT assay; format: functional, cell-based, U-87MG ATCC
U-251 [2] = assay: Antiproliferative activity against human U-251 cells assessed as cell viability measured after 72 hrs by MTT assay; format: functional, cell-based; details: U-251, 72 h
[3] = Permeability coefficient of compound by lipid-PAMPA assay; format: ADME; details: for Papp: read-out: Peff
U-87 MG [4] = assay: Antiproliferative activity against human U87 cells assessed as inhibition rate at 20 uM measured after 72 hrs by MTT assay relative to control; format: functional, U-87MG ATCC
U-251 [5] = assay: Antiproliferative activity against human U-251 cells assessed as inhibition rate at 20 uM measured after 72 hrs by MTT assay relative to control; format: functional
U-251 [6] = assay: Induction of apoptosis in human U-251 cells assessed as late apoptotic cells at 2.5 uM measured after 48 hrs by Annexin V/PI analysis (reference value: 0.7%); format: functional
U-251 [7] = assay: Decrease in SIRT1 gene expression in human U-251 cells at 5 uM measured after 48 hrs incubation by RT-qPCR analysis; format: functional, cell-based
U-251 [8] = assay: Induction of apoptosis in human U-251 cells assessed as viable cells at 2.5 uM measured after 48 hrs by Annexin V/PI analysis (reference value: 96.2%); format: functional; details: read-out: Activity
U-251 [9] = assay: Inhibition of colony formation in human U-251 cells; format: functional, cell-based
U-251 [10] = assay: Induction of apoptosis in human U-251 cells assessed as viable cells at 5 uM measured after 48 hrs by Annexin V/PI analysis (reference value: 96.2%); format: functional; details: read-out: Activity
U-251 [11] = assay: Effect on GSDMD protein expression in human U-251 cells at 1 to 5 uM measured after 48 hrs by Western blot analysis; format: functional, cell-based; details: dose 1-5 µM
[12] = Toxicity in BALB/c mouse xenografted with human U-251 cells assessed as body weight change at 60 mg/kg, ip treated for 5 weeks; format: organism-based; details: in vivo, 840 h
U-251 [13] = assay: Increase in BCL2 homologous antagonist/killer (Bak) expression human U-251 cells measured at 1 to 5 uM after 48 hrs by Western blot analysis; format: functional, cell-based; details: dose 1-5 µM
U-251 [14] = assay: Effect on RIPK1 protein expression in human U-251 cells at 1 to 5 uM measured after 48 hrs by Western blot analysis; format: functional, cell-based; details: dose 1-5 µM
U-251 [15] = assay: Effect on caspase 8 protein expression in human U-251 cells at 1 to 5 uM measured after 48 hrs by Western blot analysis; format: functional, cell-based; details: dose 1-5 µM
[16] = Toxicity in BALB/c mouse xenografted with human U-251 cells assessed as toxicity at 60 mg/kg, ip treated for 5 weeks; format: organism-based; details: in vivo, 840 h
U-251 [17] = assay: Induction of apoptosis in human U-251 cells assessed as increase in caspase-3 expression measured after 48 hrs by Western blot analysis; format: functional, cell-based; details: dose 1-5 µM
U-251 [18] = assay: Induction of apoptosis in human U-251 cells assessed as increase in BCL2 homologous antagonist/killer (Bak) expression measured after 48 hrs by Western blot analysis; format: functional, cell-based; details: dose 1-5 µM
U-251 [19] = assay: Decrease in SIRT1 protein expression in human U-251 cells at 1 to 5 uM by Western blot analysis; format: functional, cell-based; details: dose 1-5 µM
[20] = Toxicity in BALB/c mouse xenografted with human U-251 cells assessed as pathological changes in lung at 60 mg/kg, ip treated for 5 weeks by hematoxylin and eosin staining based assay; format: organism-based; details: in vivo, 840 h
U-251 [21] = assay: Induction of apoptosis in human U-251 cells assessed as increase in p53 expression measured after 48 hrs by Western blot analysis; format: functional, cell-based; details: dose 1-5 µM
U-251 [22] = assay: Induction of apoptosis in human U-251 cells assessed as late apoptotic cells at 1 uM measured after 48 hrs by Annexin V/PI analysis (reference value: 0.7%); format: functional
U-251 [23] = assay: Increase in acetylated p53 level in SIRT1 overexpressed human U-251 cells at 1 to 5 uM by Western blot analysis; format: functional, cell-based; details: dose 1-5 µM
U-251 [24] = assay: Effect on RIPK3 protein expression in human U-251 cells at 1 to 5 uM measured after 48 hrs by Western blot analysis; format: functional, cell-based; details: dose 1-5 µM
[25] = Toxicity in BALB/c mouse xenografted with human U-251 cells assessed as pathological changes in spleen at 60 mg/kg, ip treated for 5 weeks by hematoxylin and eosin staining based assay; format: organism-based; details: in vivo, 840 h
[26] = Toxicity in BALB/c mouse xenografted with human U-251 cells assessed as pathological changes in liver at 60 mg/kg, ip treated for 5 weeks by hematoxylin and eosin staining based assay; format: organism-based; details: in vivo, 840 h
[27] = Toxicity in BALB/c mouse xenografted with human U-251 cells assessed as pathological changes in kidney at 60 mg/kg, ip treated for 5 weeks by hematoxylin and eosin staining based assay; format: organism-based; details: in vivo, 840 h
U-251 [28] = assay: Anti-GBM effect in human U-251 cells xenografted in BALB/c mouse model assessed as inhibition of tumor growth at 60 mg/kg, ip treated for 5 weeks; format: functional, organism-based
U-251 [29] = assay: Increase in acetylated p53 level in human U-251 cells at 1 to 5 uM by Western blot analysis; format: functional, cell-based; details: dose 1-5 µM
U-251 [30] = assay: Induction of apoptosis in human U-251 cells assessed as necrotic cells at 1 uM measured after 48 hrs by Annexin V/PI analysis (reference value: 0%); format: functional
U-251 [31] = assay: Increase in caspase 3 expression human U-251 cells measured at 1 to 5 uM after 48 hrs by Western blot analysis; format: functional, cell-based; details: dose 1-5 µM
U-251 [32] = assay: Effect on ZBP1 protein expression in human U-251 cells at 1 to 5 uM measured after 48 hrs by Western blot analysis; format: functional, cell-based; details: dose 1-5 µM
U-251 [33] = assay: Induction of apoptosis in human U-251 cells assessed as necrotic cells at 5 uM measured after 48 hrs by Annexin V/PI analysis (reference value: 0%); format: functional
U-251 [34] = assay: Anti-GBM effect in human U-251 cells xenografted in BALB/c mouse model assessed as reduction in number of Ki67-positive cells in the tumor at 60 mg/kg, ip treated for 5 weeks by immunohistochemical staining analysis; format: functional, organism-based
U-251 [35] = assay: Induction of apoptosis in human U-251 cells assessed as early apoptotic cells at 1 uM measured after 48 hrs by Annexin V/PI analysis (reference value: 3.1%); format: functional
U-251 [36] = assay: Effect on phosphorylated-[…] protein expression in human U-251 cells at 1 to 5 uM measured after 48 hrs by Western blot analysis; format: functional, cell-based; details: dose 1-5 µM
U-251 [37] = assay: Induction of apoptosis in human U-251 cells assessed as late apoptotic cells at 5 uM measured after 48 hrs by Annexin V/PI analysis (reference value: 0.7%); format: functional
U-251 [38] = assay: Induction of apoptosis in human U-251 cells assessed as early apoptotic cells at 5 uM measured after 48 hrs by Annexin V/PI analysis (reference value: 3.1%); format: functional
U-251 [39] = assay: Induction of apoptosis in human U-251 cells assessed as early apoptotic cells at 2.5 uM measured after 48 hrs by Annexin V/PI analysis (reference value: 3.1%); format: functional
U-251 [40] = assay: Induction of apoptosis in human U-251 cells assessed as necrotic cells at 2.5 uM measured after 48 hrs by Annexin V/PI analysis (reference value: 0%); format: functional
U-251 [41] = assay: Induction of apoptosis in human U-251 cells assessed as viable cells at 1 uM measured after 48 hrs by Annexin V/PI analysis (reference value: 96.2%); format: functional; details: read-out: Activity
[42] = Toxicity in BALB/c mouse xenografted with human U-251 cells assessed as pathological changes in heart at 60 mg/kg, ip treated for 5 weeks by hematoxylin and eosin staining based assay; format: organism-based; details: in vivo, 840 h

SMILES: COc1ccc(C(=O)/C=C/c2ccccc2C(=O)N2CCN(Cc3ccccc3)C23COC3)cc1
IC50 (U-87 MG [1]): > 10 µM | IC50 (U-251 [2]): 11.6 µM

SMILES: COc1ccc(C(=O)/C=C/c2cccc(C(=O)N3CCN(Cc4ccccc4)C34COC4)c2)cc1OC
IC50 (U-87 MG [1]): 4.4 µM | IC50 (U-251 [2]): 1.6 µM

SMILES: COc1cc(C(=O)/C=C/c2cccc(C(=O)N3CCN(Cc4ccccc4)C34COC4)c2)cc(OC)c1OC
IC50 (U-87 MG [1]): 2.2 µM | IC50 (U-251 [2]): 1.1 µM

SMILES: COc1cc(C(=O)/C=C/c2ccc(C(=O)N3CCN(Cc4ccccc4)C34COC4)s2)cc(OC)c1OC
IC50 (U-87 MG [1]): 4 µM | IC50 (U-251 [2]): 2.1 µM

SMILES: COc1ccc(C(=O)/C=C/c2ccccc2C(=O)N2CCN(Cc3ccccc3)C23COC3)c(OC)c1OC
IC50 (U-87 MG [1]): > 10 µM | IC50 (U-251 [2]): 11 µM

SMILES: COc1cc(/C=C/C(=O)c2ccc(C(=O)N3CCN(Cc4ccccc4)C34COC4)cc2)cc(OC)c1OC
IC50 (U-87 MG [1]): 3.7 µM | IC50 (U-251 [2]): 2.2 µM

SMILES: O=C(CCl)N1CCN(Cc2ccccc2)C12COC2
IC50 (U-87 MG [1]): 11.5 µM | Papp [3]: 23.4 ×10⁻⁶ cm/s | inhibition at 20 µM (U-87 MG [4]): 90.1% | IC50 (U-251 [2]): 8.6 µM | inhibition at 20 µM (U-251 [5]): 87.7%

SMILES: COc1ccc(C(=O)/C=C/c2cccc(C(=O)N3CCN(Cc4ccccc4)C34COC4)c2)cc1
IC50 (U-87 MG [1]): 2.6 µM | IC50 (U-251 [2]): 2 µM

SMILES: COc1cc(C(=O)/C=C/c2ccc(C(=O)N3CCN(Cc4ccccc4)C34COC4)cc2)cc(OC)c1OC
Activity (U-251 [6]): 9.2% | Activity (U-251 [7]): Active | viability at 2.5 µM (U-251 [8]): 74.2% | inhibition (U-251 [9]): Dose-Dependent Effect | viability at 5 µM (U-251 [10]): 14.7% | IC50 (U-87 MG [1]): 2.1 µM | Activity (U-251 [11]): inactive | Activity [12]: Non-Toxic | Activity (U-251 [13]): inactive | Activity (U-251 [14]): inactive | Activity (U-251 [15]): inactive | Activity [16]: Non-Toxic | Activity (U-251 [17]): Dose-Dependent Effect | Activity (U-251 [18]): Dose-Dependent Effect | Activity (U-251 [19]): Active | Papp [3]: 13.1 ×10⁻⁶ cm/s | Activity [20]: Non-Toxic | Activity (U-251 [21]): Dose-Dependent Effect | Activity (U-251 [22]): 8.2% | Activity (U-251 [23]): inactive | Activity (U-251 [24]): inactive | Activity [25]: Non-Toxic | Activity [26]: Non-Toxic | Activity [27]: Non-Toxic | Activity (U-251 [28]): Active | Activity (U-251 [29]): Active | Activity (U-251 [30]): 0.2% | Activity (U-251 [31]): inactive | Activity (U-251 [32]): inactive | Activity (U-251 [33]): 0.1% | Activity (U-251 [34]): Active | IC50 (U-251 [2]): 0.9 µM | Activity (U-251 [35]): 11.8% | Activity (U-251 [36]): inactive | Activity (U-251 [37]): 67.5% | Activity (U-251 [38]): 17.7% | Activity (U-251 [39]): 16.4% | Activity (U-251 [40]): 0.2% | viability at 1 µM (U-251 [41]): 79.8% | Activity [42]: Non-Toxic

SMILES: N#Cc1cccc(C(=O)/C=C/c2ccc(C(=O)N3CCN(Cc4ccccc4)C34COC4)cc2)c1
IC50 (U-87 MG [1]): 6.1 µM | IC50 (U-251 [2]): 5.4 µM

The next lines start with the values.

IC50 (U-87 MG [1]): 5.3 µM | IC50 (U-251 [2]): 5.3 µM
SMILES: O=C(/C=C/c1ccc(C(=O)N2CCN(Cc3ccccc3)C23COC3)cc1)c1ccncc1

IC50 (U-87 MG [1]): 2 µM | IC50 (U-251 [2]): 1.2 µM
SMILES: COc1ccc(C(=O)/C=C/c2cccc(C(=O)N3CCN(Cc4ccccc4)C34COC4)c2)c(OC)c1OC

IC50 (U-87 MG [1]): 5 µM | IC50 (U-251 [2]): 3 µM
SMILES: O=C(/C=C/c1ccc(C(=O)N2CCN(Cc3ccccc3)C23COC3)cc1)c1ccccc1

IC50 (U-87 MG [1]): 3 µM | IC50 (U-251 [2]): 3.3 µM
SMILES: O=C(/C=C/c1ccncc1)c1ccc(C(=O)N2CCN(Cc3ccccc3)C23COC3)cc1

IC50 (U-87 MG [1]): 6.3 µM | IC50 (U-251 [2]): 5.4 µM
SMILES: N#Cc1ccc(C(=O)/C=C/c2ccc(C(=O)N3CCN(Cc4ccccc4)C34COC4)cc2)cc1

IC50 (U-87 MG [1]): 3.2 µM | IC50 (U-251 [2]): 2.4 µM
SMILES: COc1ccc(C(=O)/C=C/c2ccc(C(=O)N3CCN(Cc4ccccc4)C34COC4)cc2)cc1

IC50 (U-87 MG [1]): > 50 µM | Peff [3]: 0.002 10^-6 cm/s | IC50 (U-251 [2]): > 50 µM
SMILES: Cn1nnc2c(C(N)=O)ncn2c1=O [TEMOZOLOMIDE]
